In patent US11465972B2, “Inhibitors of oxidized low-density lipoprotein receptor 1 and methods of use thereof” (United States Government as represented by the Department …, priority 2015, dated 2022):

Assays:
macrophages = conditions: cited from earlier work
[1] = test system: human primary aortic endothelial cells; assay: ox-LDL uptake by human primary aortic endothelial cells (flow cytometry); assay type: cell-based; conditions: Endothelial cell, 0, 5, 50, 100, 250, 500 nM
Description: FIG. 7A depicts flow cytometry measurements using human primary aortic endothelial cells in the presence of 0, 5, 50 100, 250 and […] of Formula XVI. FIG. 7B depicts the percentage of internalized ox-LDL. The x-axis represents Formula XVI concentration (nM) and the y-axis represents ox-LDL uptake by ECs.
Ox-LDL uptake by human primary aortic endothelial cells was measured after exposure to 0, 5, 50, 100, 250 and 500 nM of the compound of Formula XVI (compound 13 in Table 3) using flow cytometry.

LOX-1 expression = conditions: cited from earlier work
[2] = molecular target: CHO cells expressing LOX-1 (Homo sapiens, UniProt P78380); conditions: only at high concentrations; cited from earlier work

For CCCCCCCCCCCCCCCCCC(=O)Nc1ccc(S(=O)(=O)O)c(NC(=O)CCCCCCCCCCCCCCCCC)c1 [2,4-bis(octadecanoylamino) benzenesulfonic acid], the “LDL binding to macrophages” value (macrophages) is listed as “prevented LDL from binding to macrophages”.
Work on OC(COc1ccccc1)Cn1ccnc1I (stereo not shown) [Formula XVI] yielded an IC50 [1] of 26.7 nM.
In the case of CC(=O)Oc1ccccc1C(=O)O [aspirin], the “ox-LDL mediated LOX-1 expression” value (LOX-1 expression) is given as “reduce ox-LDL mediated LOX-1 expression”.
For procyanidins, the “ox-LDL uptake in CHO cells expressing LOX-1” value [2] is listed as “inhibited ox-LDL uptake”.
